Test results published in patent publication US11440907B1 (Merck Patent GmbH, priority 2018, dated 2022).

Columns and labels:
[1] = test system: β-catenin-TCF-mediated reporter transcription activity in Colo 205 cells; assay: Colo 205 reporter assay (TCF/LEF promoter-driven firefly luciferase); format: cell-based; conditions: Homo sapiens; Colo 205 TCF/LEF luciferase reporter, 5 hours after compound addition, 384 well; read-out: Colo205 IC50
[2] = test system: NCI-H929 (Multiple myeloma cells); assay: Cell viability (ATPLite) in NCI-H929; format: cell-based; conditions: Homo sapiens, 96 hours
Protocol: (§1) Cells were removed from liquid nitrogen storage, thawed and expanded in appropriate growth media. Once expanded, cells were seeded in 384-well tissue culture treated plates at 500 cells per well. After 24 hours, cells were treated for either 0 hours or treated for 96 hours with a testing compound (at the concentrations of 100 nM and 2 uM). At the end of either 0 hours or 96 hours, cell status was analyzed using ATPLite (Perkin Elmer) to assess the biological response of cells to the testing compound.

[3] = test system: XBP1(u)-luciferase splicing reporter in HepG2 hepatoma cells; assay: HepG2 XBP1 reporter assay (XBP1(u)-Luc); format: cell-based; conditions: Homo sapiens, 6 hours after compound addition; for IC50: Table 4; for EC50: Table 3, read-out: XBP1-luc HepG2 1 EC50
[4] = test system: DU4475 (breast cancer cells); assay: Cell viability (ATPLite) in DU4475; format: cell-based; conditions: Homo sapiens, DU-4475, 96 hours
Protocol: as §1

[5] = test system: intracellular calcium flux in Colo-205 cells; assay: Calcium flux assay (FLIPR Calcium 5 Assay Kit, FLIPR3); format: cell-based; conditions: Homo sapiens, 0.6 h, calcium flux measured over 36 minutes, read-out: Colo 205 Calcium Flux assay 384w Boston Ca assay FLIPR3 Colo EC50
Protocol: Compounds described herein induced ER stress by causing intracellular calcium flux. Calcium flux was measured in Colo-205 cells using the FLIPR® Calcium 5 Assay Kit according to manufacturer's protocol (Molecular Devices, Cat. #R8186) on a FLIPR3 system (Molecular Devices). Calcium flux is measured over 36 minutes. The Colo-205 calcium flux assay data are summarized in Table 3: A<0.6 μM; 0.6 μM≤B<2.0 μM; 2.0 μM≤C<10.0 μM; D≥10.0 μM.

| Structure (SMILES) | melting point | IC50 [1] | IC50 [2] | IC50 [3] | IC50 [4] | EC50 [3] | EC50 [5] |
| --- | --- | --- | --- | --- | --- | --- | --- |
| Cc1cc(N2CCCN(S(C)(=O)=O)CC2c2ccccc2Cl)nc(N)n1 (racemic) [I-28, (+/−)-4-(2-(2-chlorophenyl)-4-(methylsulfonyl)-1,4-diazepan-1-yl)-6-methylpyrimidin-2-amine] | 278 to 280 °C |  |  |  |  |  |  |
| COc1cc(C2CCCCCN2c2cc(C)nc(N)n2)c(OC)cn1 (racemic) [I-116, (+/−)-4-[2-(2,5-dimethoxy-4-pyridyl)azepan-1-yl]-6-methyl-pyrimidin-2-amine] | 107 to 109 °C |  |  |  |  |  |  |
| COc1ccc(Cl)c(C2CCCCCN2c2cc(C)nc(N)n2)c1 (racemic) [I-117, (+/−)-4-(2-(2-chloro-5-methoxyphenyl)azepan-1-yl)-6-methylpyrimidin-2-amine] | 88 to 90 °C | 0.3 to 1 µM |  |  |  |  |  |
| COc1ccc(Cl)c(C2COCCCN2c2cc(C)nc(N)n2)c1 (racemic) [I-118, (+/−)-4-(3-(2-chloro-5-methoxyphenyl)-1,4-oxazepan-4-yl)-6-methylpyrimidin-2-amine] | 220 °C | 0.3 to 1 µM |  |  |  |  |  |
| Cc1cc(N2CCCOCC2c2cc(N3CCCC3=O)ccc2Cl)nc(N)n1 (racemic) [I-119, 1-(3-(4-(2-amino-6-methylpyrimidin-4-yl)-1,4-oxazepan-3-yl)-4-chlorophenyl)pyrrolidin-2-one] | 138 to 140 °C | 0.3 to 1 µM |  |  |  |  |  |
| Cc1cc(N2CCCOC[C@H]2c2ccccc2Cl)nc(N)n1 (single isomer, unassigned) [I-30] | 156 to 160 °C |  |  |  |  |  |  |
| Cc1cc(N2CCCOC[C@H]2c2ccc(C#N)cc2Cl)nc(N)n1 (single isomer, unassigned) [I-96] | 220 °C |  |  |  |  |  |  |
| Cc1cc(N2CCCOC[C@@H]2c2cc(S(C)(=O)=O)ccc2Cl)nc(N)n1 (single isomer, unassigned) [I-103] | 120 °C |  |  |  |  |  |  |
| Cc1cc(N2CCCOCC2c2cc3c(cc2Cl)NCC3)nc(N)n1 (stereo not shown) [C-1] |  |  | < 1 µM | < 0.6 µM | < 1 µM |  |  |
| Cc1cc(N2CCCOCC2c2cc(F)c(C)cc2Cl)nc(N)n1 (stereo not shown) [C-2] |  |  | 1 to 10 µM | 0.6 to 2 µM | 1 to 10 µM |  |  |
| Cc1cc(N2CCCOCC2c2cc(Cl)c(C)cc2Cl)nc(N)n1 (stereo not shown) [C-3] |  |  | 1 to 10 µM | 0.6 to 2 µM | 1 to 10 µM |  |  |
| Cc1cc(N2CCCOCC2c2cc(F)c(F)cc2Cl)nc(N)n1 (stereo not shown) [C-4] |  |  | 1 to 10 µM | 0.6 to 2 µM | 1 to 10 µM |  |  |
| Cc1cc(N2CCCOCC2c2cc3c(cc2Cl)OCC(=O)N3)nc(N)n1 (stereo not shown) [C-5] |  |  | < 1 µM | < 0.6 µM | < 1 µM |  |  |
| Cc1cc(N2CCCOCC2c2cc3c(cc2Cl)OCCO3)nc(N)n1 (stereo not shown) [C-6] |  |  | 1 to 10 µM | 0.6 to 2 µM | < 1 µM |  |  |
| Cc1cc(N2CCCOCC2c2cc(Cl)c(O)cc2Cl)nc(N)n1 (stereo not shown) [C-7] |  |  | 1 to 10 µM | 0.6 to 2 µM | 1 to 10 µM |  |  |
| Cc1cc(N2CCCOCC2c2ccc(CS(C)(=O)=O)cc2F)nc(N)n1 (stereo not shown) [C-11, 4-[3-(2-Fluoro-4-methanesulfonylmethyl-phenyl)-[1,4]oxazepan-4-yl]-6-methyl-pyrimidin-2-ylamine] |  |  | < 1 µM | 0.6 to 2 µM | < 1 µM |  |  |
| Cc1cc(N2CCCOCC2c2cc(CS(C)(=O)=O)ccc2Cl)nc(N)n1 (stereo not shown) [C-12, 4-[3-(2-Chloro-5-methanesulfonylmethyl-phenyl)-[1,4]oxazepan-4-yl]-6-methyl-pyrimidin-2-ylamine] |  |  | 1 to 10 µM | 0.6 to 2 µM | < 1 µM |  |  |
| Cc1cc(N2CCCOCC2c2cc3c(cc2Cl)OCCCO3)nc(N)n1 (stereo not shown) [C-13] |  |  | 1 to 10 µM | < 0.6 µM | < 1 µM |  |  |
| COc1cc(C2COCCCN2c2cc(C)nc(N)n2)c(Cl)cc1O (stereo not shown) [C-14] |  |  | 1 to 10 µM | 0.6 to 2 µM | < 1 µM |  |  |
| COc1cc(Cl)c(C2COCCCN2c2cc(C)nc(N)n2)cc1OC (stereo not shown) [C-15] |  |  | < 1 µM | 0.6 to 2 µM | < 1 µM |  |  |
| Cc1cc(N2CCCOCC2c2cc(C)c(N)cc2Cl)nc(N)n1 (stereo not shown) [C-16] |  |  | < 1 µM | < 0.6 µM | < 1 µM |  |  |
| Cc1cc(N2CCCOCC2c2cc(F)c(Cl)cc2Cl)nc(N)n1 (stereo not shown) [C-18] |  |  | 1 to 10 µM | 2 to 5 µM | 1 to 10 µM |  |  |
| COc1cc(Cl)c(C2COCCCN2c2cc(C)nc(N)n2)cc1Cl (stereo not shown) [C-19] |  |  | 1 to 10 µM | 0.6 to 2 µM | < 1 µM |  |  |
| Cc1cc(N2CCCOCC2c2cc3c(cc2Cl)n(C)c(=O)n3C)nc(N)n1 (stereo not shown) [C-20] |  |  | < 1 µM | < 0.6 µM | < 1 µM |  |  |
| CCNc1cc(Cl)c(C2COCCCN2c2cc(C)nc(N)n2)cc1C (stereo not shown) [C-21] |  |  | < 1 µM | < 0.6 µM | < 1 µM |  |  |
| Cc1cc(N2CCCOCC2c2cc(O)c(O)cc2Cl)nc(N)n1 (stereo not shown) [C-22] |  |  | ≥ 25 µM |  | ≥ 25 µM |  |  |
| CCOc1cc(Cl)c(C2COCCCN2c2cc(C)nc(N)n2)cc1OC (stereo not shown) [C-23] |  |  | < 1 µM | < 0.6 µM | < 1 µM |  |  |

| Structure (SMILES) | melting point | IC50 [1] | IC50 [2] | IC50 [3] | IC50 [4] | EC50 [3] | EC50 [5] |
| --- | --- | --- | --- | --- | --- | --- | --- |
| COc1cc(C2COCCCN2c2cc(C)nc(N)n2)c(Cl)cc1OC(C)C (stereo not shown) [C-24] |  |  | 1 to 10 µM | < 0.6 µM | < 1 µM |  |  |
| Cc1cc(N2CCCOCC2c2cc(F)c(O)cc2Cl)nc(N)n1 (stereo not shown) [C-30] |  |  | 1 to 10 µM | 0.6 to 2 µM | 1 to 10 µM |  |  |
| Cc1cc(N2CCCOCC2c2cc(C(F)(F)F)c(N)cc2Cl)nc(N)n1 (stereo not shown) [C-31] |  |  | 1 to 10 µM | < 0.6 µM | < 1 µM |  |  |
| Cc1cc(N2CCCOCC2c2cc3c(cc2Cl)N(C)CC3)nc(N)n1 (stereo not shown) [C-32] |  |  | < 1 µM | < 0.6 µM | < 1 µM |  |  |
| Cc1cc(N2CCCOCC2c2cc(F)c(-c3cccnc3)cc2Cl)nc(N)n1 (stereo not shown) [C-33] |  |  | 1 to 10 µM |  | 1 to 10 µM |  |  |
| Cc1cc(N2CCCOCC2c2cc(Cl)c(Cl)cc2Cl)nc(N)n1 (stereo not shown) [C-34] |  |  | 1 to 10 µM | ≥ 5 µM | 1 to 10 µM |  |  |
| Cc1cc(N2CCCOCC2c2cc3c(cc2Cl)NC(=O)CO3)nc(N)n1 (stereo not shown) [C-35] |  |  | < 1 µM | < 0.6 µM | < 1 µM |  |  |
| COc1cc(Cl)c([C@H]2COCCCN2c2cc(C)nc(N)n2)cc1O [C-36] |  |  | < 1 µM | < 0.6 µM | < 1 µM |  |  |
| Cc1cc(N2CCCOCC2c2cc3c(cc2Cl)CCN3)nc(N)n1 (stereo not shown) [C-37] |  |  | < 1 µM |  | < 1 µM |  |  |
| Cc1cc(N2CCCOCC2c2cc(C)c(F)cc2Cl)nc(N)n1 (stereo not shown) [C-38] |  |  | 1 to 10 µM | 2 to 5 µM | 1 to 10 µM |  |  |
| COc1cc(Cl)c(C2COCCCN2c2cc(C)nc(N)n2)cc1OC(C)C (stereo not shown) [C-39] |  |  | 1 to 10 µM | 0.6 to 2 µM | < 1 µM |  |  |
| CCOc1cc(Cl)c(C2COCCCN2c2cc(C)nc(N)n2)cc1OCC (stereo not shown) [C-40] |  |  | 1 to 10 µM | < 0.6 µM | < 1 µM |  |  |
| CCOc1cc(Cl)c(C2COCCCN2c2cc(C)nc(N)n2)cc1Cl (stereo not shown) [C-41] |  |  | 10 to 25 µM | < 0.6 µM | < 1 µM |  |  |
| Cc1cc(N2CCCOCC2c2ccc(OC[C@@H](O)CO)cc2Cl)nc(N)n1 (stereo partly drawn) [C-42, (S)-3-{4-[4-(2-Amino-6-methyl-pyrimidin-4-yl)-[1,4]oxazepan-3-yl]-3-chloro-phenoxy}-propane-1,2-diol] |  |  | < 1 µM | 0.6 to 2 µM | < 1 µM |  |  |
| Cc1cc(N2CCCOC[C@@H]2c2ccc(N3CCC(C)(O)CC3)cc2Cl)nc(N)n1 [C-151] |  |  | < 1 µM | < 0.6 µM | < 1 µM |  |  |
| Cc1cc(N2CCCOC[C@@H]2c2ccc(NC3COC3)cc2Cl)nc(N)n1 [C-152] |  |  | < 1 µM | < 0.6 µM | < 1 µM |  |  |
| Cc1cc(N2CCCOC[C@H]2c2ccc(S(C)(=O)=O)cc2Cl)nc(N)n1 [C-155] |  |  | ≥ 25 µM |  | ≥ 25 µM |  |  |
| CCS(=O)(=O)c1ccc(C2COCCCN2c2cc(C)nc(N)n2)c(Cl)c1 (stereo not shown) [I-297] |  | 0.3 to 1 µM |  |  |  | < 0.6 µM | < 0.6 µM |
| Cc1cc(N2CCCOCC2c2ccc(C(N)=O)cc2Cl)nc(N)n1 (stereo not shown) [I-298] |  | < 0.3 µM |  |  |  | 2 to 5 µM | < 0.6 µM |
| C=C(C)c1ccc(C2COCCCN2c2cc(C)nc(N)n2)c(Cl)c1 (stereo not shown) [I-299] |  | 0.3 to 1 µM |  |  |  | 0.6 to 2 µM | < 0.6 µM |
| Cc1cc(N2CCCOCC2c2cc(-n3cccc3)ccc2Cl)nc(N)n1 (stereo not shown) [I-300] |  | 0.3 to 1 µM |  |  |  | 0.6 to 2 µM | < 0.6 µM |
| Cc1cc(N2CCCOCC2c2ccc(NC(=O)C3(O)CC3)cc2Cl)nc(N)n1 (stereo not shown) [I-303] |  | 0.3 to 1 µM |  |  |  | < 0.6 µM | < 0.6 µM |
| Cc1cc(N2CCCOCC2c2cc(N3CCCC3)ccc2Cl)nc(N)n1 (stereo not shown) [I-304] |  | 0.3 to 1 µM |  |  |  | 0.6 to 2 µM | < 0.6 µM |
| Cc1cc(N2CCCOCC2c2ccc(NC(=O)C3CC3)cc2Cl)nc(N)n1 (stereo not shown) [I-305] |  | 0.3 to 1 µM |  |  |  | < 0.6 µM | < 0.6 µM |
| CCC(=O)Nc1ccc(C2COCCCN2c2cc(C)nc(N)n2)c(Cl)c1 (stereo not shown) [I-306] |  | 0.3 to 1 µM |  |  |  | < 0.6 µM | < 0.6 µM |
| Cc1nc(N)nc2c1-c1c(NC3COC3)ccc(Cl)c1C1COCCCN21 (stereo not shown) [I-309] |  | < 0.3 µM |  |  |  | < 0.6 µM | < 0.6 µM |
